In patent publication US8119683B2, “Aryl substituted sulfonamide compounds and their use as anticancer agents” (Taipei Medical University, priority 2009, dated 2012):

Tested on: not given
Test: not given
Details: not given

Row | SMILES | melting point
1 | COc1ccc(S(=O)(=O)n2ccc3ccnc(-c4ccncc4)c32)cc1 [Compound 13, 1-(4-methoxy-benzenesulfonyl)-7-pyridin-4-yl-1H-pyrrolo[2,3-c]pyridine] | 193.1 to 194.3 °C
2 | COC(=O)c1ccc(-c2nccc3ccn(S(=O)(=O)c4ccc(OC)cc4)c23)cc1 [Compound 7, 4-[1-(4-methoxy-benzenesulfonyl)-1H-pyrrolo[2,3-c]pyridin-7-yl]-benzoic acid methyl ester] | 143.5 to 146.5 °C
3 | COc1ccc(S(=O)(=O)n2ccc3ccnc(-c4ccco4)c32)cc1 [Compound 16, 7-furan-2-yl-1-(4-methoxy-benzenesulfonyl)-1H-pyrrolo[2,3-c]pyridine] | 127.1 to 130.3 °C
4 | COc1ccc(S(=O)(=O)n2ccc3ccnc(-c4ccc(Cl)cc4)c32)cc1 [Compound 9, 7-(4-chloro-phenyl)-1-(4-methoxy-benzenesulfonyl)-1H-pyrrolo[2,3-c]pyridine] | 125.5 to 128.5 °C
5 | COc1ccc(S(=O)(=O)n2ccc3ccnc(-c4ccc(C(F)(F)F)cc4)c32)cc1 [Compound 15, 1-(4-methoxy-benzenesulfonyl)-7-(4-trifluoromethyl-phenyl)-1H-pyrrolo[2,3-c]pyridine] | 143.1 to 144.9 °C
6 | COc1ccc(S(=O)(=O)n2ccc3ccnc(Nc4ccccc4)c32)cc1 [Compound 1, [1-(4-methoxy-benzenesulfonyl)-1H-pyrrolo[2,3-c]pyridin-7-yl]-phenyl-amine] | 138.5 to 139.7 °C
7 | COc1ccc(S(=O)(=O)n2ccc3ccnc(-c4ccc(F)cc4)c32)cc1 [Compound 8, 7-(4-fluoro-phenyl)-1-(4-methoxy-benzenesulfonyl)-1H-pyrrolo[2,3-c]pyridine] | 136 to 137 °C
8 | COc1ccc(S(=O)(=O)n2ccc3ccnc(-c4ccc([N+](=O)[O-])cc4)c32)cc1 [Compound 14, 1-(4-methoxy-benzenesulfonyl)-7-(4-nitro-phenyl)-1H-pyrrolo[2,3-c]pyridine] | 177.5 to 178.8 °C
9 | COc1ccc(S(=O)(=O)n2ccc3ccnc(-c4ccccc4)c32)cc1 [Compound 6, 1-(4-methoxy-benzenesulfonyl)-7-phenyl-1H-pyrrolo[2,3-c]pyridine] | 148.9 to 151 °C
10 | COc1ccc(Nc2nccc3ccn(S(=O)(=O)c4ccc(OC)cc4)c23)cc1 [Compound 4, [1-(4-methoxy-benzenesulfonyl)-1H-pyrrolo[2,3-c]pyridin-7-yl]-(4-methoxy-phenyl)-amine] | 155.5 to 158.3 °C
11 | COc1ccc(S(=O)(=O)n2ccc3ccnc(N(C)C)c32)cc1 [Compound 3, [1-(4-methoxy-benzenesulfonyl)-1H-pyrrolo[2,3-c]pyridin-7-yl]-dimethyl-amine] | 154.8 to 157.5 °C
12 | COc1ccc(-c2nccc3ccn(S(=O)(=O)c4ccc(OC)cc4)c23)cc1 [Compound 11, 1-(4-methoxy-benzenesulfonyl)-7-(4-methoxy-phenyl)-1H-pyrrolo[2,3-c]pyridine] | 162.8 to 164.8 °C
13 | COc1ccc(S(=O)(=O)n2ccc3ccnc(-c4ccc(O)cc4)c32)cc1 [Compound 10, 4-[1-(4-methoxy-benzenesulfonyl)-1H-pyrrolo[2,3-c]pyridin-7-yl]-phenol] | 179 to 182 °C
14 | COc1ccc(S(=O)(=O)n2ccc3ccnc(Nc4ccc(F)cc4)c32)cc1 [Compound 5, (4-fluoro-phenyl)-[1-(4-methoxy-benzenesulfonyl)-1H-pyrrolo[2,3-c]pyridin-7-yl]-amine] | 125.1 to 127.1 °C
15 | COc1ccc(S(=O)(=O)n2ccc3ccnc(-c4ccc(N(C)C)cc4)c32)cc1 [Compound 12, {4-[1-(4-methoxy-benzenesulfonyl)-1H-pyrrolo[2,3-c]pyridin-7-yl]-phenyl}-dimethyl-amine] | 111.5 to 114.5 °C

Other lines, results leading:

Row | melting point | SMILES
16 | 202.5 to 204.8 °C | COc1ccc(S(=O)(=O)N2CCc3cccc(-c4cc(OC)c(OC)c(OC)c4)c32)cc1 [Compound 32, 1-(4-methoxy-benzenesulfonyl)-7-(3,4,5-trimethoxy-phenyl)-2,3-dihydro-1H-indole]
17 | 179.7 to 181 °C | COc1ccc(S(=O)(=O)N2CCc3cccc(-c4ccc(C(F)(F)F)cc4)c32)cc1 [Compound 34, 1-(4-methoxy-benzenesulfonyl)-7-(4-trifluoromethyl-phenyl)-2,3-dihydro-1H-indole]
18 | 178.4 to 179.7 °C | COc1ccc(S(=O)(=O)N2CCc3cccc(-c4ccc(N(C)C)cc4)c32)cc1 [Compound 31, {4-[1-(4-methoxy-benzenesulfonyl)-2,3-dihydro-1H-indol-7-yl]-phenyl}-dimethyl-amine]
19 | 180.2 to 181.4 °C | COc1ccc(S(=O)(=O)N2CCc3cccc(-c4ccc(F)c(F)c4)c32)cc1 [Compound 21, 7-(3,4-difluoro-phenyl)-1-(4-methoxy-benzenesulfonyl)-2,3-dihydro-1H-indole]
20 | 177.1 to 178.4 °C | COc1ccc(S(=O)(=O)N2CCc3cccc(-c4ccc([N+](=O)[O-])cc4)c32)cc1 [Compound 37, 1-(4-methoxy-benzenesulfonyl)-7-(4-nitro-phenyl)-2,3-dihydro-1H-indole]
21 | 112.2 to 113.7 °C | COc1ccc(S(=O)(=O)n2ccc3ccnc(-c4cccs4)c32)cc1 [Compound 44, 1-(4-methoxy-benzenesulfonyl)-7-thiophen-2-yl-1H-pyrrolo[2,3-c]pyridine]
22 | 181.2 to 182.4 °C | COc1ccc(S(=O)(=O)n2ccc3cccc(-c4ccc(F)cc4)c32)cc1 [Compound 19, 7-(4-fluoro-phenyl)-1-(4-methoxy-benzenesulfonyl)-1H-indole]
23 | 200 to 201 °C | COc1ccc(S(=O)(=O)N2CCc3cccc(-c4ccc(C=CC(=O)NO)cc4)c32)cc1 [Compound 41, N-hydroxy-3-{4-[1-(4-methoxy-benzenesulfonyl)-2,3-dihydro-1H-indol-7-yl]-phenyl}-acrylamide]
24 | 188.7 to 190.2 °C | NS(=O)(=O)c1ccc(S(=O)(=O)N2CCc3cccc(-c4ccc(F)cc4)c32)cc1 [Compound 42, 4-[7-(4-fluoro-phenyl)-2,3-dihydro-indole-1-sulfonyl]-benzenesulfonamide]
25 | 178.8 to 181 °C | COc1ccc(S(=O)(=O)N2CCc3cccc(-c4cccnc4)c32)cc1 [Compound 46, 1-(4-methoxy-benzenesulfonyl)-7-pyridin-3-yl-2,3-dihydro-1H-indole]
26 | 164.3 to 165.7 °C | COc1ccc(S(=O)(=O)n2ccc3cccc(-c4ccc(C#N)cc4)c32)cc1 [Compound 18, 4-[1-(4-methoxy-benzenesulfonyl)-1H-indol-7-yl]-benzonitrile]
27 | 180 to 181.3 °C | COc1ccc(S(=O)(=O)N2CCc3cccc(-c4cccc(F)c4)c32)cc1 [Compound 35, 7-(3-fluoro-phenyl)-1-(4-methoxy-benzenesulfonyl)-2,3-dihydro-1H-indole]
28 | 241.7 to 242.9 °C | NS(=O)(=O)c1ccc(S(=O)(=O)N2CCc3cccc(-c4ccncc4)c32)cc1 [Compound 43, 4-(7-pyridin-4-yl-2,3-dihydro-indole-1-sulfonyl)-benzenesulfonamide]

Tested on: Human oral epidermoid carcinoma KB cells
Test: Cell growth inhibition assay (methylene blue dye), KB cells
Assay type: cell-based
Details: KB cells, bands, read-out: IC50, inhibiting proliferation of KB cells (band)
Method: Anticancer activities of the aryl substituted sulfonamide compounds synthesized in the above examples were evaluated by testing their inhibitory effects on mammalian cancer cell growth.
Human oral epidermoid carcinoma KB cells, non small cell lung carcinoma H460 cells, colorectal carcinoma HT29 cells, and stomach carcinoma MKN45 cells were maintained in RPMI-1640 medium supplied with 5% fetal bovine serum. The cells were treated with the test compound at various concentrations for 72 h.

Row | IC50 | SMILES
29 | 100 to 700 nM | COc1ccc(S(=O)(=O)N2CCc3cccc(-c4ccc(C(F)(F)F)cc4)c32)cc1 [Compound 34, 1-(4-methoxy-benzenesulfonyl)-7-(4-trifluoromethyl-phenyl)-2,3-dihydro-1H-indole]
30 | 100 to 700 nM | COc1ccc(S(=O)(=O)N2CCc3cccc(-c4ccc(N(C)C)cc4)c32)cc1 [Compound 31, {4-[1-(4-methoxy-benzenesulfonyl)-2,3-dihydro-1H-indol-7-yl]-phenyl}-dimethyl-amine]
31 | 1 to 99 nM | COc1ccc(S(=O)(=O)N2CCc3cccc(-c4ccc(F)c(F)c4)c32)cc1 [Compound 21, 7-(3,4-difluoro-phenyl)-1-(4-methoxy-benzenesulfonyl)-2,3-dihydro-1H-indole]
32 | 1 to 99 nM | COc1ccc(S(=O)(=O)N2CCc3cccc(-c4ccc([N+](=O)[O-])cc4)c32)cc1 [Compound 37, 1-(4-methoxy-benzenesulfonyl)-7-(4-nitro-phenyl)-2,3-dihydro-1H-indole]
